Consider nine compounds from ChEMBL document CHEMBL1909046, “DrugMatrix in vitro pharmacology data”.

Test system in the first series: not listed separately
In words: DRUGMATRIX: Potassium Channel [KATP] radioligand binding (ligand: [3H] Glyburide). The format is cell membranes, Membrane. As to conditions: hit-t15; Not Active = under 50% inhibition at 10 µM.
Consider `O=C(O)c1cn(-c2ccc(F)cc2)c2cc(N3CCNCC3)c(F)cc2c1=O` [SARAFLOXACIN], for which the IC50 result is listed as “Not Active” and the Ki result was “Not Active”.
As for `CC(C)NCC(O)c1ccc(NS(C)(=O)=O)cc1` (stereo not given) [SOTALOL], the IC50 entry is “Not Active” and the Ki result is “Not Active”.
`O=C1C(CC[S+]([O-])c2ccccc2)C(=O)N(c2ccccc2)N1c1ccccc1` (stereo not given) [SULFINPYRAZONE]: the IC50 entry is listed as “Not Active” and the Ki entry is reported as “Not Active”.
As to `CN(C/C=C/C#CC(C)(C)C)Cc1cccc2ccccc12` [TERBINAFINE], the IC50 result is on record as “Not Active” and the Ki entry is listed as “Not Active”.
With `CS(=O)(=O)c1ccc([C@@H](O)[C@@H](CO)NC(=O)C(Cl)Cl)cc1` [THIAMPHENICOL], the IC50 result is given as “Not Active” and the Ki entry is recorded as “Not Active”.
For `CCN(CC)CCNC(=O)c1cc(S(C)(=O)=O)ccc1OC` [TIAPRIDE], the IC50 result was “Not Active” and the Ki result is “Not Active”.
As for `Clc1ccccc1CN1CCc2sccc2C1` [TICLOPIDINE], the IC50 entry was “Not Active” and the Ki entry is on record as “Not Active”.
With `NC1CCN(c2nc3c(cc2F)c(=O)c(C(=O)O)cn3-c2ccc(F)cc2F)C1` (stereo not given) [TOSUFLOXACIN], the IC50 result is recorded as “Not Active” and the Ki result is on record as “Not Active”.
Turning to `CC(c1cc2ccccc2s1)N(O)C(N)=O` (stereo not given) [ZILEUTON], the IC50 entry is recorded as “Not Active” and the Ki entry is on record as “Not Active”.

For a further series, the target named is Kappa-type opioid receptor (Homo sapiens, UniProt P41145). The series can be described thus: DRUGMATRIX: Opiate kappa (OP2, KOP) radioligand binding (ligand: [3H] Diprenorphine). As to conditions: hek293; Not Active = under 50% inhibition at 10 µM. Type of series: cell membranes, HEK293, Membrane.
Chain of Kappa-type opioid receptor (P41145 whole entry): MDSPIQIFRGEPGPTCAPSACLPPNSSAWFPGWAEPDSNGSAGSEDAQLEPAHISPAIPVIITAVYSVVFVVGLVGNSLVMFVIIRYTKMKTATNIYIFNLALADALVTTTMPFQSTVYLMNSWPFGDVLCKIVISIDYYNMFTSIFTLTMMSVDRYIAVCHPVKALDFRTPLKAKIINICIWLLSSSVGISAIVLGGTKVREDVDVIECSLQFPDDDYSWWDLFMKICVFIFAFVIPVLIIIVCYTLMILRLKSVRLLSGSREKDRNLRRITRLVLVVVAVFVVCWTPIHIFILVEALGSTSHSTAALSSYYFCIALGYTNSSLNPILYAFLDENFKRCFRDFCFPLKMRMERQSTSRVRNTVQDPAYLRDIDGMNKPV
`O=C(O)c1cn(-c2ccc(F)cc2)c2cc(N3CCNCC3)c(F)cc2c1=O` [SARAFLOXACIN]: the IC50 entry is recorded as “Not Active”.
Consider `CC(C)NCC(O)c1ccc(NS(C)(=O)=O)cc1` (stereo not given) [SOTALOL], for which the IC50 entry was “Not Active”.
In the case of `O=C1C(CC[S+]([O-])c2ccccc2)C(=O)N(c2ccccc2)N1c1ccccc1` (stereo not given) [SULFINPYRAZONE], the IC50 entry is given as “Not Active”.
Regarding `CN(C/C=C/C#CC(C)(C)C)Cc1cccc2ccccc12` [TERBINAFINE], the IC50 entry is “Not Active”.
Turning to `CS(=O)(=O)c1ccc([C@@H](O)[C@@H](CO)NC(=O)C(Cl)Cl)cc1` [THIAMPHENICOL], the IC50 entry is reported as “Not Active”.
The same measure, in the same setting: as for `CCN(CC)CCNC(=O)c1cc(S(C)(=O)=O)ccc1OC` [TIAPRIDE], the entry is “Not Active”; as for `Clc1ccccc1CN1CCc2sccc2C1` [TICLOPIDINE], “Not Active”; as for `NC1CCN(c2nc3c(cc2F)c(=O)c(C(=O)O)cn3-c2ccc(F)cc2F)C1` (stereo not given) [TOSUFLOXACIN], “Not Active”.
Same read-out and setting: for `CC(c1cc2ccccc2s1)N(O)C(N)=O` (stereo not given) [ZILEUTON] the value was “Not Active”.

The target of the next series is cGMP-specific 3',5'-cyclic phosphodiesterase (Homo sapiens, UniProt O76074). The series can be described thus: DRUGMATRIX: Phosphodiesterase PDE5 enzyme inhibition (substrate: [3H]cGMP + cGMP). To be noted: platelet; Not Active = under 50% inhibition at 10 µM. Type of series: tissue-based, Platelet.
Consider `O=C(O)c1cn(-c2ccc(F)cc2)c2cc(N3CCNCC3)c(F)cc2c1=O` [SARAFLOXACIN], for which the IC50 entry is listed as “Not Active”.
Same read-out and setting: as for `CC(C)NCC(O)c1ccc(NS(C)(=O)=O)cc1` (stereo not given) [SOTALOL], the entry is “Not Active”; as for `O=C1C(CC[S+]([O-])c2ccccc2)C(=O)N(c2ccccc2)N1c1ccccc1` (stereo not given) [SULFINPYRAZONE], “Not Active”; as for `CN(C/C=C/C#CC(C)(C)C)Cc1cccc2ccccc12` [TERBINAFINE], “Not Active”.
On the same count and under the same terms, as for `CS(=O)(=O)c1ccc([C@@H](O)[C@@H](CO)NC(=O)C(Cl)Cl)cc1` [THIAMPHENICOL], the entry is “Not Active”; as for `CCN(CC)CCNC(=O)c1cc(S(C)(=O)=O)ccc1OC` [TIAPRIDE], “Not Active”.
For `Clc1ccccc1CN1CCc2sccc2C1` [TICLOPIDINE], the IC50 entry is recorded as “Not Active”.
Still for that read-out and setting: for `NC1CCN(c2nc3c(cc2F)c(=O)c(C(=O)O)cn3-c2ccc(F)cc2F)C1` (stereo not given) [TOSUFLOXACIN] the value was “Not Active”; for `CC(c1cc2ccccc2s1)N(O)C(N)=O` (stereo not given) [ZILEUTON], “Not Active”.

Another series has as its target T1, Muscarinic acetylcholine receptor M4 (Homo sapiens, UniProt P08173). Further: in other assays of this panel Not Active means under 50% inhibition at 10 µM.
T1 sequence (P08173 whole entry): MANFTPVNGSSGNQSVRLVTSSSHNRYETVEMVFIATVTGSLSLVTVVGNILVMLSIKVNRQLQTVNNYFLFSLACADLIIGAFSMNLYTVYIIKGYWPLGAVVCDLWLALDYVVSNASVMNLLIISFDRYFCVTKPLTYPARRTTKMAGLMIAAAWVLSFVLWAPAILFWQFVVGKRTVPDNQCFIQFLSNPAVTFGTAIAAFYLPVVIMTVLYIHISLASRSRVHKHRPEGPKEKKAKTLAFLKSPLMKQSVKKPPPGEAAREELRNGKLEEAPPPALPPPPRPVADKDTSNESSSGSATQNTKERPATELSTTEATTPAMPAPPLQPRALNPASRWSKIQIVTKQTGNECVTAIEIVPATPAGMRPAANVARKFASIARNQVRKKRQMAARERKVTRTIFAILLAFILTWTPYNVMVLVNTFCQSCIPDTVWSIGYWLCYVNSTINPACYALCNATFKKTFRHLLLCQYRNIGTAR
Type of series: cell membranes, CHO-K1, Membrane. As to conditions: cho-k1.
As to `O=C(O)c1cn(-c2ccc(F)cc2)c2cc(N3CCNCC3)c(F)cc2c1=O` [SARAFLOXACIN], the IC50 entry is “Not Active”.
With `CC(C)NCC(O)c1ccc(NS(C)(=O)=O)cc1` (stereo not given) [SOTALOL], the IC50 result is listed as “Not Active”.
Take `O=C1C(CC[S+]([O-])c2ccccc2)C(=O)N(c2ccccc2)N1c1ccccc1` (stereo not given) [SULFINPYRAZONE]: the IC50 entry was “Not Active”.
Still for that read-out and setting: as for `CN(C/C=C/C#CC(C)(C)C)Cc1cccc2ccccc12` [TERBINAFINE], the entry is “Not Active”; as for `CS(=O)(=O)c1ccc([C@@H](O)[C@@H](CO)NC(=O)C(Cl)Cl)cc1` [THIAMPHENICOL], “Not Active”.
Take `CCN(CC)CCNC(=O)c1cc(S(C)(=O)=O)ccc1OC` [TIAPRIDE]: the IC50 entry was “Not Active”.
With `Clc1ccccc1CN1CCc2sccc2C1` [TICLOPIDINE], the IC50 entry is recorded as “Not Active”.
`NC1CCN(c2nc3c(cc2F)c(=O)c(C(=O)O)cn3-c2ccc(F)cc2F)C1` (stereo not given) [TOSUFLOXACIN]: the IC50 entry was “Not Active”.
On the same count and under the same terms, as for `CC(c1cc2ccccc2s1)N(O)C(N)=O` (stereo not given) [ZILEUTON], the entry is “Not Active”.

Test system in another series: not listed separately
In words: DRUGMATRIX: Calcium Channel Type L, Dihydropyridine radioligand binding (ligand: [3H] Nitrendipine). The format is cell membranes, Rattus norvegicus, Wistar, Cerebral cortex, Membrane. To be noted: Not Active = under 50% inhibition at 10 µM.
For the compound `O=C(O)c1cn(-c2ccc(F)cc2)c2cc(N3CCNCC3)c(F)cc2c1=O` [SARAFLOXACIN], the IC50 result was “Not Active” and the Ki result is given as “Not Active”.
For the compound `CC(C)NCC(O)c1ccc(NS(C)(=O)=O)cc1` (stereo not given) [SOTALOL], the IC50 result was “Not Active” and the Ki entry is reported as “Not Active”.
Take `O=C1C(CC[S+]([O-])c2ccccc2)C(=O)N(c2ccccc2)N1c1ccccc1` (stereo not given) [SULFINPYRAZONE]: the IC50 entry is recorded as “Not Active” and the Ki entry is recorded as “Not Active”.
For the compound `CN(C/C=C/C#CC(C)(C)C)Cc1cccc2ccccc12` [TERBINAFINE], the IC50 entry is “Not Active” and the Ki result is on record as “Not Active”.
As to `CS(=O)(=O)c1ccc([C@@H](O)[C@@H](CO)NC(=O)C(Cl)Cl)cc1` [THIAMPHENICOL], the IC50 entry was “Not Active” and the Ki result is given as “Not Active”.
`CCN(CC)CCNC(=O)c1cc(S(C)(=O)=O)ccc1OC` [TIAPRIDE]: the IC50 result is on record as “Not Active” and the Ki result is “Not Active”.
Take `Clc1ccccc1CN1CCc2sccc2C1` [TICLOPIDINE]: the IC50 entry is listed as “Not Active” and the Ki result is reported as “Not Active”.
Turning to `NC1CCN(c2nc3c(cc2F)c(=O)c(C(=O)O)cn3-c2ccc(F)cc2F)C1` (stereo not given) [TOSUFLOXACIN], the IC50 result was “Not Active” and the Ki result is recorded as “Not Active”.
Consider `CC(c1cc2ccccc2s1)N(O)C(N)=O` (stereo not given) [ZILEUTON], for which the IC50 entry is on record as “Not Active” and the Ki result is recorded as “Not Active”.

In the next series the target is Cytochrome P450 2C9 (Homo sapiens, UniProt P11712). To be noted: bti-tn-5b1-4. Further: in other assays of this panel Not Active means under 50% inhibition at 10 µM.
Chain of Cytochrome P450 2C9 (P11712 whole entry): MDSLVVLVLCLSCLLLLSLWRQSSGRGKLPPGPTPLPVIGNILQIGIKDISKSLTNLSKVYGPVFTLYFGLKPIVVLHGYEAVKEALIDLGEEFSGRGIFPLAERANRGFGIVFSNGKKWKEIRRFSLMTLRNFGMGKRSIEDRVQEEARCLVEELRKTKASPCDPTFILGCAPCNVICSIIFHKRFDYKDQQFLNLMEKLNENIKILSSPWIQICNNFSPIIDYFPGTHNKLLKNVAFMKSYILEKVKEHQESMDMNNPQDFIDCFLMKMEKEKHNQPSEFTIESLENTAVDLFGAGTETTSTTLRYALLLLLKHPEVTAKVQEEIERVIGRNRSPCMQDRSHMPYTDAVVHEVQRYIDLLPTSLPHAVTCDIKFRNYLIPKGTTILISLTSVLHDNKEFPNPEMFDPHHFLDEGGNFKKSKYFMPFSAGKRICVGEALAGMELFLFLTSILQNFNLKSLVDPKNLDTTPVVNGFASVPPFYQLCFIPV
For `O=C(O)c1cn(-c2ccc(F)cc2)c2cc(N3CCNCC3)c(F)cc2c1=O` [SARAFLOXACIN], the IC50 entry is listed as “Not Active” and the Ki result is on record as “Not Active”.
In the case of `CC(C)NCC(O)c1ccc(NS(C)(=O)=O)cc1` (stereo not given) [SOTALOL], the IC50 entry is reported as “Not Active” and the Ki result is “Not Active”.
For `O=C1C(CC[S+]([O-])c2ccccc2)C(=O)N(c2ccccc2)N1c1ccccc1` (stereo not given) [SULFINPYRAZONE], the IC50 result is “Not Active” and the Ki entry is recorded as “Not Active”.
Regarding `CN(C/C=C/C#CC(C)(C)C)Cc1cccc2ccccc12` [TERBINAFINE], the IC50 result is given as “Not Active” and the Ki entry is “Not Active”.
For the compound `CS(=O)(=O)c1ccc([C@@H](O)[C@@H](CO)NC(=O)C(Cl)Cl)cc1` [THIAMPHENICOL], the IC50 result is on record as “Not Active” and the Ki entry is “Not Active”.
With `CCN(CC)CCNC(=O)c1cc(S(C)(=O)=O)ccc1OC` [TIAPRIDE], the IC50 result is reported as “Not Active” and the Ki entry is “Not Active”.
Take `Clc1ccccc1CN1CCc2sccc2C1` [TICLOPIDINE]: the IC50 result was “Not Active” and the Ki result is on record as “Not Active”.
Consider `NC1CCN(c2nc3c(cc2F)c(=O)c(C(=O)O)cn3-c2ccc(F)cc2F)C1` (stereo not given) [TOSUFLOXACIN], for which the IC50 result was “Not Active” and the Ki result was “Not Active”.
As for `CC(c1cc2ccccc2s1)N(O)C(N)=O` (stereo not given) [ZILEUTON], the IC50 result is “Not Active” and the Ki result is reported as “Not Active”.

The target of the next series is Carbonic anhydrase 2 (Homo sapiens, UniProt P00918). The series can be described thus: DRUGMATRIX: Carbonic Anhydrase II enzyme inhibition (substrate: 4-Nitrophenyl acetate (4-NPA)). The format is tissue-based. As to conditions: erythrocyte; Not Active = under 50% inhibition at 10 µM.
As to `O=C(O)c1cn(-c2ccc(F)cc2)c2cc(N3CCNCC3)c(F)cc2c1=O` [SARAFLOXACIN], the IC50 result is reported as “Not Active”.
With `CC(C)NCC(O)c1ccc(NS(C)(=O)=O)cc1` (stereo not given) [SOTALOL], the IC50 result was “Not Active”.
Turning to `O=C1C(CC[S+]([O-])c2ccccc2)C(=O)N(c2ccccc2)N1c1ccccc1` (stereo not given) [SULFINPYRAZONE], the IC50 result was “Not Active”.
For the compound `CN(C/C=C/C#CC(C)(C)C)Cc1cccc2ccccc12` [TERBINAFINE], the IC50 entry was “Not Active”.
Consider `CS(=O)(=O)c1ccc([C@@H](O)[C@@H](CO)NC(=O)C(Cl)Cl)cc1` [THIAMPHENICOL], for which the IC50 entry was “Not Active”.
As to `CCN(CC)CCNC(=O)c1cc(S(C)(=O)=O)ccc1OC` [TIAPRIDE], the IC50 entry is “Not Active”.
The same measure, in the same setting: for `Clc1ccccc1CN1CCc2sccc2C1` [TICLOPIDINE] the value was “Not Active”.
The same measure, in the same setting: for `NC1CCN(c2nc3c(cc2F)c(=O)c(C(=O)O)cn3-c2ccc(F)cc2F)C1` (stereo not given) [TOSUFLOXACIN] the value was “Not Active”; for `CC(c1cc2ccccc2s1)N(O)C(N)=O` (stereo not given) [ZILEUTON], “Not Active”.
